The values that follow are results of earlier work, collected in patent US12533310B2, “Fragrance or flavor composition” (Takasago International Corporation, priority 2019, dated 2026).

The conditions of data set [1]: background art, Patent Literature 4; cited from earlier work.
For data set [2], the target named is T1, olfactory receptor OR2W1 (Homo sapiens, UniProt Q9Y3N9).
T1 sequence (Q9Y3N9 1-320): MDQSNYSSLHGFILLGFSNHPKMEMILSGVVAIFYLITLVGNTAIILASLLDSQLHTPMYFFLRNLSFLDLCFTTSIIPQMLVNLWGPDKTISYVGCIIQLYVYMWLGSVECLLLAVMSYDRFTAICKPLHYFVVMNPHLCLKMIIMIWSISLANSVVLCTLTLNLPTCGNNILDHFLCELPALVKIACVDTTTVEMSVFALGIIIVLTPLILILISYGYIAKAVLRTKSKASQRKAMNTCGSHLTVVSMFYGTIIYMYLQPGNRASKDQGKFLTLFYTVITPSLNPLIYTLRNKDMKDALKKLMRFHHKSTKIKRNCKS
The settings on record: background art, cited from earlier work.

With `CC(C)c1cccc(C(C)CC=O)c1` (stereo not drawn) [florhydral], the “suppression of offensive odor induced by hexanoic acid in sensory testing” value in data set [1] was “suppress an offensive odor induced by hexanoic acid”. Also, in data set [2] (Patent Literature 4), the “inhibition of the activity of OR2W1” value is “inhibiting the activity of this OR2W1”.
For `CCCCCC(=O)O` [hexanoic acid], the “response of olfactory receptor OR2W1” value in data set [2] is reported as “responds to hexanoic acid”.
